Read-outs that look alike come from different tables or passages of the source.
How the values were obtained:
[1] = Bioavailability test, oral suspensions in beagle dogs; type: in vivo; settings: oral suspension in CMC-Na, 5 mg/kg (as compound of Formula I); for Cmax: plasma concentration of compound of Formula I by LC-MS; for AUC0-t: sampling to 48 h
Description: Study procedure: Fifteen beagle dogs (7.4˜9.4 kg body weight) were randomly divided into 5 groups, and administered orally suspensions of the compound of Formula I, the maleate, citrate, oxalate and acetate thereof (calculated according to the amount of the compound of Formula I) in CMC-Na (carboxymethylcellulose sodium) at a dosage of 5 mg/kg body weight, respectively.
Chromatographic conditions: methanol as mobile phase A and a 0.1% (v/v) aqueous solution of formic acid as mobile phase B, an isocratic elution A:B=52:48; 0.2 mL/min of a flow rate; 35° C. of column temperature; and SHIMADZU Shim-pack VP-ODS C18 (5.0 μm, 150 mm×2.0 mm I.D., Shimadzu Corporation) as chromatographic column.
Mass spectrometry conditions: ion source: ESI ionization source, scanning in SIM mode, 250° C. of curved desolventizer (CDL) temperature, 200° C. of heating block temperature; 25V of CDL voltage; +1.60 kV of detection voltage; 1.5 L/min of atomization gas flow rate; 2.0 L/min of dry gas flow rate.

[2] = system: NCI-H1975, a human non-small cell lung cancer cell; assay: Anchorage-independent cell proliferation assay, NCI-H1975; type: cell-based; settings: NCI-H1975, 168 h, soft agarose, 7 days treatment, CellTiter-Blue
Description: (§1) NCI-H1975, a human non-small cell lung cancer cell, and BT474, a human breast cancer cell line, were cultured in RPIM-1640 or DMEM culture medium supplemented with 10% fetal bovine serum (FBS) in a cell incubator (37° C., 5% CO2). In the test of the compound, culture plates were pre-coated with 0.6% medium, and the cells were resuspended with 0.3% low-melting-point agarose, and then seeded in a 96-well plate at a density of 10,000 cells per well (100 μL). The compound was diluted at a 3-fold gradient, starting from 10 mM. For each of concentration, 2 μL of the solution was taken, and added to 98 μL of culture medium, and then 5.3 μL of the mixture was added to the cell culture medium (0.1% of DMSO final concentration, v/v). After the treatment for one week (7 days), 20 μL of CellTiter-Blue® (Promega) reagent was added, and incubated at 37° C. for 4 hours. Fluorescence signals were read on Envison (Perkin Elmer), and IC50 values of the compound for inhibiting cell proliferation were calculated using GraphPad Prism 5.0.

[3] = system: BT474, a human breast cancer cell line; assay: Anchorage-independent cell proliferation assay, BT474; type: cell-based; settings: BT-474, 168 h, soft agarose, 7 days treatment, CellTiter-Blue
Description: as §1

Row | Compound | CL/F ([1]; plasma) [L/h/kg] | T1/2 ([1]; plasma) [h] | Tmax ([1]; plasma) [h] | Cmax [1] [µg/mL] | AUC0-t ([1]; plasma) [µg·h/mL] | IC50 [2] [nM] | IC50 [3] [nM] | Vd/F ([1]; dog, plasma) [L/kg] | half-life ([1]; dog, plasma) [h] | Cmax ([1]; dog, read-out: Cmax) [µg/mL] | CL/F ([1]; dog, plasma, read-out: CL/F (converted)) [L/h/kg] | Tmax ([1]; dog, plasma, read-out: Tmax) [h] | AUC0-t ([1]; dog, plasma, read-out: AUC0-t) [µg·h/mL]
1 | CC(=O)O [Acetate] | 3.31 | 9.41 | 3.33 | 2.08 | 20.35 |  |  |  |  |  |  |  | 
2 | Citrate | 4.32 | 4.48 | 1.33 | 1.29 | 10.76 |  |  |  |  |  |  |  | 
3 | C=CC(=O)N1CCC(Nc2cc3c(Nc4ccc(F)c(Cl)c4)ncnc3cc2OC)CC1 [Example 1, N^6-(1-acryloylpiperidin-4-yl)-N^4-(3-chloro-4-fluorophenyl)-7-methoxyquinazoline-4,6-diamine] |  |  |  |  |  | 14 | 2.1 | 0.78 ± 1.08 | 5.13 ± 2.85 | 2.82 ± 2.83 | 4.67 | 3.17 ± 4.19 | 42.1
4 | Oxalate | 1.39 | 9.38 | 1.50 | 3.59 | 53.20 |  |  |  |  |  |  |  | 

Reference: patent publication US10231973B2, “Salts of quinazoline derivative and method for preparing the same” (CHIA TAI TIANQING PHARMACEUTICAL GROUP CO., LTD., priority 2015, dated 2019)
